Here are results for 38 compounds from patent US5521196A, “5-HT1F agonists for the treatment of migraine” (Eli Lilly and Company, priority 1994, dated 1996).

The structures appear in SMILES notation. Where a name gives a salt, the structure may show the parent alone.

A word on the Ki: it is the equilibrium dissociation constant of an inhibitor or competing ligand from its target.

The first experiment deals with T1, 5-HT1F receptor (Homo sapiens, UniProt P30939).
T1 sequence (P30939 1-366): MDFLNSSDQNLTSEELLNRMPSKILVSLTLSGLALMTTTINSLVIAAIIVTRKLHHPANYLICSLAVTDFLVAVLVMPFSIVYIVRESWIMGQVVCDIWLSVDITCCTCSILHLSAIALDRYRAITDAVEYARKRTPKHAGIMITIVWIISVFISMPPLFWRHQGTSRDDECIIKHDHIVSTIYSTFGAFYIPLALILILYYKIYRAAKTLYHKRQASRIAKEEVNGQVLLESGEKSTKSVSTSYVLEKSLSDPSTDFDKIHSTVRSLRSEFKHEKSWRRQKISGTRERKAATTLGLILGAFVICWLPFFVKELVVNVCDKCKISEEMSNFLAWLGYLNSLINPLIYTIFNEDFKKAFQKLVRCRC
In words: biochemical. The conditions noted are these: Table I; displacement of 4.5-5.5 nM [3H]5-HT, 37° C., 30 minutes; read-out: 5-HT1F BINDING Ki.
`CC(C)n1cc(CCN2CCC(c3c[nH]c4ccc(F)cc34)CC2)cn1` [Example 7, 5-fluoro-3-<1-<2-<1-(1-methylethyl)-1H-pyrazol-4-yl>ethyl>-4-piperidinyl>-1H-indole oxalate]: the Ki is 4.9 nM.

For the compound `CCCn1cc(CCN2CCC(c3c[nH]c4ccccc34)CC2)cn1` [Example 12, 3-<1-<2-<1-propyl-1H-pyrazol-4-yl>ethyl>-4-piperidinyl>-1-H-indole oxalate], the Ki came out at 3.3 nM.

`Brc1ccc2[nH]cc(C3CCN(CCc4cnn(-c5ccccc5)c4)CC3)c2c1` [Example 26, 5-bromo-3-<1-<2-<1-phenyl-1H-pyrazol-4-yl>ethyl>-4-piperidinyl>-1H-indoleoxalate]: the Ki came out at 13.8 nM.

On to `Clc1ccc2[nH]cc(C3CCN(CCc4cnn(CC5CC5)c4)CC3)c2c1` [Example 21, 5-chloro-3-<1-<2-<1-cyclopropylmethyl-1H-pyrazol-4-yl>ethyl>-4-piperidinyl>-1H-indole hydrochloride], for which the inhibition constant Ki amounted to 14.5 nM.

For the compound `Fc1ccc2[nH]cc(C3CCN(CCc4cnn(-c5ccccc5)c4)CC3)c2c1` [Example 24, 5-fluoro-3-<1-<2-<1-phenyl-1H-pyrazol-4-yl>ethyl>-4-piperidinyl>-1H-indoleoxalate], the Ki came to 5.5 nM.

`Cn1cc(CCN2CCC(c3c[nH]c4ccc(Cl)cc34)CC2)cn1` [Example 3, 5-chloro-3-<1-<2-<1-methyl-1H-pyrazol-4-yl>ethyl>-4-piperidinyl>-1H-indolehydrochloride]: the Ki worked out at 1.7 nM.

For the compound `Clc1ccc2[nH]cc(C3CCN(CCc4cnn(-c5ccc(I)cc5)c4)CC3)c2c1` [Example 38, 5-chloro-3-<1-<2-<1-(4-iodophenyl)-1H-pyrazol-4-yl>ethyl>-4-piperidinyl>-1H-indole oxalate], the Ki was 77.4 nM.

For `COc1ccc2[nH]cc(C3CCN(CCc4cnn(C(C)C)c4)CC3)c2c1` [Example 10, 5-methoxy-3-<1-<2-<1-(1-methylethyl)-1H-pyrazol-4-yl>ethyl>-4-piperidinyl>- 1H-indole oxalate], the Ki is 6.2 nM.

In the case of `CCCn1cc(CCN2CCC(c3c[nH]c4ccc(Br)cc34)CC2)cn1` [Example 15, 5-bromo-3-<1-<2-<1-propyl-1H-pyrazol-4-yl>ethyl>-4-piperidinyl>-1H-indoleoxalate], the Ki is 6.6 nM.

Regarding `Fc1ccc2[nH]cc(C3CCN(CCc4cnn(C5CCCCC5)c4)CC3)c2c1` [Example 17, 5-fluoro-3-<1-<2-<1-cyclohexyl-1H-pyrazol-4-yl>ethyl>-4-piperidinyl>-1H-indole oxalate], the Ki turned out to be 33.2 nM.

For `Fc1ccc2[nH]cc(C3CCN(CCc4cnn(Cc5ccccc5)c4)CC3)c2c1` [Example 22, 5-fluoro-3-<1-<2-<1-benzyl-1H-pyrazol-4-yl>ethyl>-4-piperidinyl>-1H-indolehydrochloride], the Ki came out at 52.5 nM.

As for `Fc1ccc2[nH]cc(C3CCN(CCc4cc[nH]c4)CC3)c2c1` [Example 44, 5-fluoro-3-<1-<2-<1H-pyrrol-3-yl>ethyl>-4-piperidinyl>-1H-indole oxalate], the Ki came out at 53.9 nM.

Consider `Fc1ccccc1-n1cc(CCN2CCC(c3c[nH]c4ccc(Cl)cc34)CC2)cn1` [Example 29, 5-chloro-3-<1-<2-<1-(2-fluorophenyl)-1H-pyrazol-4-yl>ethyl>-4-piperidinyl>- 1H-indole], for which the Ki turned out to be 10.4 nM.

For `Cc1ccccc1-n1cc(CCN2CCC(c3c[nH]c4ccc(Cl)cc34)CC2)cn1` [Example 41, 5-chloro-3-<1-<2-<1-(2-methylphenyl)-1H-pyrazol-4-yl>ethyl>-4-piperidinyl>- 1H-indole oxalate], the Ki was 153 nM.

For the compound `Clc1ccc2[nH]cc(C3CCN(CCc4cnn(-c5ccccc5)c4)CC3)c2c1` [Example 25, 5-chloro-3-<1-<2-<1-phenyl-1H-pyrazol-4-yl>ethyl>-4-piperidinyl>-1H-indoleoxalate], the inhibitory constant (Ki) worked out at 6.9 nM.

Consider `c1ccc(-n2cc(CCN3CCC(c4c[nH]c5ccccc45)CC3)cn2)cc1` [Example 23, 3-<1-<2-<1-phenyl-1H-pyrazol-4-yl>ethyl>-4-piperidinyl>-1H-indolehydrochloride], for which the Ki is 4.3 nM.

Take `CC(C)n1cc(CCN2CCC(c3c[nH]c4ccc(Br)cc34)CC2)cn1` [Example 9, 5-bromo-3-<1-<2-<1-(1-methylethyl)-1H-pyrazol-4-yl>ethyl>-4-piperidinyl>-1H-indole oxalate]: the Ki was 5 nM.

Take `CC(C)n1cc(CCN2CC=C(c3c[nH]c4ccc(Cl)cc34)CC2)cn1` [Example 55, 5-chloro-3-<1,2,3,6-tetrahydro-1-<2-<1-(1-ethylmethyl)-1H-pyrazol-4-yl>ethyl>-4-pyridinyl>-1H-indole]: the Ki was found to be 7.4 nM.

`Clc1ccc2[nH]cc(C3CCN(CCc4cnn(-c5ccccc5Cl)c4)CC3)c2c1` [Example 32, 5-chloro-3-<1-<2-<1-(2-chlorophenyl)-1H-pyrazol-4-yl>ethyl>-4-piperidinyl>- 1H-indole oxalate]: the Ki was 44.1 nM.

Regarding `CC(C)n1cc(CCN2CCC(c3c[nH]c4ccccc34)CC2)cn1` [Example 6, 3-<1-<2-<1-(1-methylethyl)-1H-pyrazol-4-yl>ethyl>-4-piperidinyl>-1H-indolehydrochloride], the Ki turned out to be 4.5 nM.

`Fc1ccc2[nH]cc(C3CCN(CCc4cnn(CC5CC5)c4)CC3)c2c1` [Example 20, 5-fluoro-3-<1-<2-<1-cyclopropylmethyl-1H-pyrazol-4-yl>ethyl>-4-piperidinyl>-1H-indole hydrochloride]: the Ki amounted to 8.9 nM.

On to `c1ccc2c(C3CCN(CCc4cnn(C5CCCCC5)c4)CC3)c[nH]c2c1` [Example 16, 3-<1-<2-<1-cyclohexyl-1H-pyrazol-4-yl>ethyl>-4-piperidinyl>-1H-indoleoxalate], for which the Ki worked out at 43.8 nM.

With `Fc1ccc(-n2cc(CCN3CCC(c4c[nH]c5ccc(Cl)cc45)CC3)cn2)cc1` [Example 31, 5-chloro-3-<1-<2-<1-(4-fluorophenyl)-1H-pyrazol-4-yl>ethyl>-4-piperidinyl>- 1H-indole oxalate], the inhibitory constant (Ki) came out at 11.5 nM.

Consider `Cc1ccc(-n2cc(CCN3CCC(c4c[nH]c5ccc(Cl)cc45)CC3)cn2)cc1` [Example 43, 5-chloro-3-<1-<2-<1-(4-methylphenyl)-1H-pyrazol-4-yl>ethyl>-4-piperidinyl>- 1H-indole], for which the Ki was found to be 37.7 nM.

Turning to `Cn1cc(CCN2CCC(c3c[nH]c4ccc(O)cc34)CC2)cn1` [Example 49, 5-hydroxy-3-<1-<2-<1-methyl-1H-pyrazol-4-yl>ethyl>-4-piperidinyl>-1H-indoleoxalate], the Ki is 1.4 nM.

On to `COc1ccc(-n2cc(CCN3CCC(c4c[nH]c5ccc(Cl)cc45)CC3)cn2)cc1` [Example 40, 5-chloro-3-<1-<2-<1-(4-methoxyphenyl)-1H-pyrazol-4-yl>ethyl>-4-piperidinyl>-1H-indole], for which the Ki turned out to be 12.7 nM.

As for `CC(C)n1cc(CCN2CCC(c3c[nH]c4ccc(Cl)cc34)CC2)cn1` [Example 8, 5-chloro-3-<1-<2-<1-(1-methylethyl)-1H-pyrazol-4-yl>ethyl>-4-piperidinyl>-1H-indole], the Ki was found to be 4.1 nM.

For the compound `Fc1cccc(-n2cc(CCN3CCC(c4c[nH]c5ccc(Cl)cc45)CC3)cn2)c1` [Example 30, 5-chloro-3-<1-<2-<1-(3-fluorophenyl)-1H-pyrazol-4-yl>ethyl>-4-piperidinyl>- 1H-indole oxalate], the Ki was 51 nM.

Turning to `Clc1ccc2[nH]cc(C3CCN(CCc4cnn(C5CCCCC5)c4)CC3)c2c1` [Example 18], the Ki turned out to be 34 nM.

For the compound `Clc1ccc2[nH]cc(C3CCN(CCCc4cn[nH]c4)CC3)c2c1` [Example 54, 5-chloro-3-<1-<3-<1H-pyrazol-4-yl>propyl>-4-piperidinyl>-1H-indole oxalate], the inhibition constant Ki came out at 42 nM.

With `Clc1ccc(-n2cc(CCN3CCC(c4c[nH]c5ccc(Cl)cc45)CC3)cn2)cc1` [Example 34, 5-chloro-3-<1-<2-<1-(4-chlorophenyl)-1H-pyrazol-4-yl>ethyl>-4-piperidinyl>- 1H-indole], the Ki was found to be 161 nM.

Regarding `Fc1ccc2[nH]cc(C3CCN(CCc4ccncc4)CC3)c2c1` [Example 46, 5-fluoro-3-<1-<2-<pyridin-4-yl>ethyl>-4-piperidinyl>-1H-indoledihydrochloride], the Ki stood at 5.3 nM.

For the compound `Cn1cc(CCN2CCC(c3c[nH]c4ccc(Br)cc34)CC2)cn1` [Example 4, 5-bromo-3-<1-<2-<1-methyl-1H-pyrazol-4-yl>ethyl>-4-piperidinyl>-1H-indoleoxalate], the Ki worked out at 3 nM.

In the case of `CCCn1cc(CCN2CCC(c3c[nH]c4ccc(F)cc34)CC2)cn1` [Example 13, 5-fluoro-3-<1-<2-<1-propyl-1H-pyrazol-4-yl>ethyl>-4-piperidinyl>-1H-indoleoxalate], the Ki came to 6 nM.

Take `Brc1ccc2[nH]cc(C3CCN(CCc4cnn(C5CCCCC5)c4)CC3)c2c1` [Example 19]: the Ki was 49.4 nM.

For the compound `CCCn1cc(CCN2CCC(c3c[nH]c4ccc(O)cc34)CC2)cn1` [Example 53, 5-hydroxy-3-<1-<2-<1-propyl-1H-pyrazol-4-yl>ethyl>-4-piperidinyl>-1H-indole], the Ki is 1.1 nM.

On to `Fc1ccc2[nH]cc(C3CCN(CCc4cn[nH]c4)CC3)c2c1` [Example 48, 5-fluoro-3-<1-<2-<1H-pyrazol-4-yl>ethyl>-4-piperidinyl>-1H-indoledihydrochloride], for which the Ki worked out at 8.1 nM.

The experiment is the same for the next values; noted with them: read-out: 5-HT1F BINDING Ki.
Take `CC(C)n1cc(CCN2CCC(c3c[nH]c4ccc(C(N)=O)cc34)CC2)cn1` [Example 11, 5-carboxamido-3-<1-<2-<1-(1-methylethyl)-1H-pyrazol-4-yl>ethyl>-4-piperidinyl>-1H-indole]: the Ki turned out to be 10.3 nM.
